Data: patent publication US4996227A, “3-(heteroarylalkyene)- and 3-(arylalkylene)-2,4(3H,5H)-heterocyclic diones as cancer chemotherapy drugs” (priority 1989, dated 1991)

How the values were obtained:
Format in all cases: cell-based
[1] = tested on: human tumor H5340 **; test: Human Tumor Stem Cell Assay, colony growth after one hour exposure; conditions: 1 h
From the text: (§1) The in vitro Human Tumor Stem Cell Assay procedure described as follows has several advantages for testing the effectiveness of chemotherapy drugs such as the 3-(heteroarylalkylene)-2,4(3H,5H)-furandiones. The first advantage is that fresh tumor cells from a variety of tumor types were used rather than a small number of cell lines which have undergone severe selection pressures as they are passed in vitro. The second advantage is that only the anchorage-independent tumor cells will form colonies in soft agar so that any non-malignant cells present in the sample will not form colonies. Perhaps the most important advantage, however, is the emphasis on cells which have the ability to form colonies. These cells, which are generally called stem cells, usually comprise only a small percentage of all tumor cells. They are thought to be the most important cells for growth and distant spread of a tumor. In particular, these cells have the potential to leave the primary tumor and form new tumors at distant sites (called metastases). It is the effectiveness against these very important stem cells that the Human Tumor Stem Cell Assay measures.
(§2) One of the 3-(heteroarylalkylene)-2,4(3H,5H)-furandione compounds, 3-[(5-methyl-2-thienyl) methylene]-2,4(3H,5H)-furandione was evaluated against a series of 10 human tumors in the in vitro Human Tumor Cell Assay, along with conventional and standard chemotherapy agents.
(§3) In the procedure, a single cell suspension was prepared from tumors excised from patients during therapeutic or diagnostic surgical procedures. The human tumor cells were exposed to known anticancer drugs or to [(5-methyl-2-thienyl)methylene]-2,4 (3H, 5H)-furandione at a low (0.2 mcg/ml) or a high (1.0 mcg/ml) concentration for one hour. […] The suspension was washed with tissue culture medium to remove the drug.
(§4) The suspension was then cultured in a double soft agar suspension. Control cells which had been treated identically, except for exposure to the drugs, were also cultured. After one to two weeks, both the tumor cells and the control cells formed colonies in the soft agar which were enumerated under a microscope. The number of colonies grown from the drug-treated cells was compared to the number of colonies grown from the control cells, and the percentage growth after exposure to the drug was calculated.
(§5) The results are illustrated in Table 1, wherein the various numbers indicate the percentage of growth. For example, a small number like 6 means that the number of colonies is only 6% of the number without addition of the compound. On the other hand, a large number like 120 means that the number of colonies is 20% greater with the compound than without.
(§6) Of the nine tumors for which the higher concentration (1.0 mcg/ml) of the furandione was used, five gave inhibition of colony growth corresponding to borderline sensitive (30-50% growth) and four gave inhibition corresponding to sensitivity (0-30% growth). Clinical drugs are normally tested at 10% of their peak plasma concentration. For the standard chemotherapy drugs shown in Table 1, the low concentration (LO) corresponds to this 10% level, and the high concentration (HI) is at 50% of the peak plasma concentration. Of the same nine tumors, only two would have been rated as sensitive or borderline sensitive to any of the other clinical drugs tested.

[2] = tested on: human tumor H5315 BREAST; test: as above; conditions: LO: furandione 0.2 mcg/ml; standard drugs 10% of peak plasma concentration; 1 h
From the text: as §1, §2, §3, §4, §5, §6

[3] = tested on: human tumor H5318 OVARY; test: as above; conditions: 1 h
From the text: as §1, §2, §3, §4, §5, §6

[4] = tested on: human tumor H5319 BREAST; test: as above; conditions: 1 h
From the text: as §1, §2, §3, §4, §5, §6

[5] = tested on: human tumor H5322 STOMACH; test: as above; conditions: 1 h
From the text: as §1, §2, §3, §4, §5, §6

[6] = tested on: human tumor H5330 THYMUS; test: as above; conditions: HI: furandione 1.0 mcg/ml; standard drugs 50% of peak plasma concentration; 1 h
From the text: as §1, §2, §3, §4, §5, §6

[7] = tested on: human tumor H5331 OVARY; test: as above; conditions: 1 h
From the text: as §1, §2, §3, §4, §5, §6

[8] = tested on: K562 cells (human chronic granulocytic leukemia); test: K562 human leukemia cell suspension culture, cell concentration; conditions: 1 ug/ml
Procedure: In this example, 1 mcg/ml of 3[[5-methyl-2-thienyl]methylene]2, 4 (3H, 5H) furandione was compared to 1 mcg/ml of 3[[3-methyl-2-thienyl]methylene]2, 4 (3H, 5H) furandione.
A conventionally available cell line (K562) derived from human chronic granulocytic leukemia was employed in an in vitro procedure. The leukemia cell line was cultured in a suspension of RPMI 1640 plus 10% fetal calf serum. All initial cell concentrations for the cultures were 0.65 times 10^5 cells/ml. Four separate suspension cultures were employed with the first suspension culture having no additions. The second suspension culture included 100 microliters of the solvent DMSO per 10 ml of culture (control). The third culture contained 1 ug/ml of 3[[5-methyl-2 thienyl]methylene]-2, 4 (3H, 5H) furandione and the fourth culture contained 1 ug/ml of 3[[3-methyl-2-thienyl]methylene]-2, 4 (3H, 5H) furandione. The cell concentration of each of the four cultures was determined. After three days and again after five days.

[9] = tested on: human tumor H5325 SARCOMA; test: Human Tumor Stem Cell Assay, colony growth after one hour exposure; conditions: 1 h
From the text: as §1, §2, §3, §4, §5, §6

[10] = tested on: human tumor H5337 COLON; test: as above; conditions: 1 h
From the text: as §1, §2, §3, §4, §5, §6

[11] = tested on: human tumor H5349 BREAST; test: as above; conditions: 1 h
From the text: as §1, §2, §3, §4, §5, §6

[12] = HI: furandione 1.0 mcg/ml, standard drugs 50% of peak plasma concentration
[13] = LO: furandione 0.2 mcg/ml, standard drugs 10% of peak plasma concentration

## CCOC(=O)NC1=C(N2CC2)C(=O)C(NC(=O)OCC)=C(N2CC2)C1=O [AZO, AZIRIDIMYLBENYOQUINONE]
[1]; [12]
  percentage of growth (colonies vs control): 107%

## CC[C@]1(O)C[C@H]2CN(CCc3c([nH]c4ccccc34)[C@@](C(=O)OC)(c3cc4c(cc3OC)N(C=O)[C@H]3[C@@](O)(C(=O)OC)[C@H](OC(C)=O)[C@]5(CC)C=CCN6CC[C@]43[C@@H]65)C2)C1 [VCR, VINCRISTINE]
[1]; [12]
  percentage of growth (colonies vs control): 113%

## CO[C@@]12[C@H](COC(N)=O)C3=C(C(=O)C(C)=C(N)C3=O)N1C[C@@H]1N[C@@H]12 [MTC, MITOMYCIN C]
[2]
  percentage of growth (colonies vs control): 59%
[3]; [12]
  percentage of growth (colonies vs control): 90%
[4]; [12]
  percentage of growth (colonies vs control): 72%
[5]; [12]
  percentage of growth (colonies vs control): 69%
[6]
  percentage of growth (colonies vs control): 90%
[7]; [12]
  percentage of growth (colonies vs control): 102%

## Cc1ccsc1C=C1C(=O)COC1=O [3 methyl, 3[[3-methyl-2-thienyl]methylene]-2, 4 (3H, 5H) furandione]
[8]
  effect on leukemia culture: also shows a decrease in the leukemia cell concentration culture, but the decrease is not as great as with the other compound
[8]; 3 Days
  Cell Conc.: 50000 mL⁻¹
[8]; 5 Days
  Cell Conc.: 150000 mL⁻¹
[8]; after five days
  cell concentration vs 5-methyl analog: slightly higher cell concentration than the 5-methyl analog

## N.N.[Cl][Pt][Cl] [CPDD, CISPLATIN]
[3]; [12]
  percentage of growth (colonies vs control): 38%
[3]; [13]
  percentage of growth (colonies vs control): 109%
[5]; [12]
  percentage of growth (colonies vs control): 56%
[5]; [13]
  percentage of growth (colonies vs control): 63%
[9]; [13]
  percentage of growth (colonies vs control): 62%
[6]
  percentage of growth (colonies vs control): 75%
[7]; [12]
  percentage of growth (colonies vs control): 69%
[7]; [13]
  percentage of growth (colonies vs control): 87%
[10]; [12]
  percentage of growth (colonies vs control): 41%
[10]; [13]
  percentage of growth (colonies vs control): 98%
[1]; [12]
  percentage of growth (colonies vs control): 125%
[11]; [12]
  percentage of growth (colonies vs control): 54%
[11]; [13]
  percentage of growth (colonies vs control): 48%

## CC[C@]1(O)C[C@@H]2CN(CCc3c([nH]c4ccccc34)[C@@](C(=O)OC)(c3cc4c(cc3OC)N(C)[C@H]3[C@@](O)(C(=O)OC)[C@H](OC(C)=O)[C@]5(CC)C=CCN6CC[C@]43[C@@H]65)C2)C1 [VBL, VINBLASTINE]
[2]
  percentage of growth (colonies vs control): 50%
[3]; [12]
  percentage of growth (colonies vs control): 60%
[3]; [13]
  percentage of growth (colonies vs control): 39%
[4]; [12]
  percentage of growth (colonies vs control): 6%
[4]; [13]
  percentage of growth (colonies vs control): 5%
[5]; [12]
  percentage of growth (colonies vs control): 35%
[5]; [13]
  percentage of growth (colonies vs control): 40%
[9]; [12]
  percentage of growth (colonies vs control): 8%
[9]; [13]
  percentage of growth (colonies vs control): 9%
[7]; [12]
  percentage of growth (colonies vs control): 45%
[7]; [13]
  percentage of growth (colonies vs control): 115%
[10]; [12]
  percentage of growth (colonies vs control): 67%
[10]; [13]
  percentage of growth (colonies vs control): 60%
[1]; [12]
  percentage of growth (colonies vs control): 44%
[1]; [13]
  percentage of growth (colonies vs control): 79%
[11]; [12]
  percentage of growth (colonies vs control): 65%
[11]; [13]
  percentage of growth (colonies vs control): 70%

## Nc1nc(=S)c2[nH]cnc2[nH]1 [Compound 6TG, 6THOQUANINE]
[5]; [12]
  percentage of growth (colonies vs control): 122%
[9]; [12]
  percentage of growth (colonies vs control): 69%
[1]; [12]
  percentage of growth (colonies vs control): 50%
[1]; [13]
  percentage of growth (colonies vs control): 75%

## O=NN(CCCl)C(=O)NCCCl [BCNU, BISCHLORETHYLNITROSOUREA]
[2]
  percentage of growth (colonies vs control): 108%
[3]; [12]
  percentage of growth (colonies vs control): 93%
[4]; [12]
  percentage of growth (colonies vs control): 122%
[6]
  percentage of growth (colonies vs control): 74%
[7]; [12]
  percentage of growth (colonies vs control): 111%
[10]; [12]
  percentage of growth (colonies vs control): 88%

## COc1cccc2c1C(=O)c1c(O)c3c(c(O)c1C2=O)C[C@@](O)(C(=O)CO)C[C@@H]3O[C@H]1C[C@H](N)[C@H](O)[C@H](C)O1 [ADR, ADRIAMYCIN]
[2]
  percentage of growth (colonies vs control): 75%
[3]; [12]
  percentage of growth (colonies vs control): 60%
[3]; [13]
  percentage of growth (colonies vs control): 76%
[4]; [12]
  percentage of growth (colonies vs control): 100%
[5]; [12]
  percentage of growth (colonies vs control): 65%
[5]; [13]
  percentage of growth (colonies vs control): 55%
[9]; [12]
  percentage of growth (colonies vs control): 11%
[9]; [13]
  percentage of growth (colonies vs control): 22%
[6]
  percentage of growth (colonies vs control): 98%
[7]; [12]
  percentage of growth (colonies vs control): 105%
[11]; [12]
  percentage of growth (colonies vs control): 82%
